# Experimental data: patent US8134015B2, “Compound inhibiting in vivo phosphorous transport and medicine containing the same” (Kyowa Hakko Kirin Co., Ltd., priority 2003, dated 2012)
# Biological target: T1, rat NaPi-2b (Rattus norvegicus, UniProt Q9JJ09)
# T1 construct: expressed in transfected cells; host or cells: Xenopus oocytes injected with cRNA
# T1 sequence (Q9JJ09 1-695): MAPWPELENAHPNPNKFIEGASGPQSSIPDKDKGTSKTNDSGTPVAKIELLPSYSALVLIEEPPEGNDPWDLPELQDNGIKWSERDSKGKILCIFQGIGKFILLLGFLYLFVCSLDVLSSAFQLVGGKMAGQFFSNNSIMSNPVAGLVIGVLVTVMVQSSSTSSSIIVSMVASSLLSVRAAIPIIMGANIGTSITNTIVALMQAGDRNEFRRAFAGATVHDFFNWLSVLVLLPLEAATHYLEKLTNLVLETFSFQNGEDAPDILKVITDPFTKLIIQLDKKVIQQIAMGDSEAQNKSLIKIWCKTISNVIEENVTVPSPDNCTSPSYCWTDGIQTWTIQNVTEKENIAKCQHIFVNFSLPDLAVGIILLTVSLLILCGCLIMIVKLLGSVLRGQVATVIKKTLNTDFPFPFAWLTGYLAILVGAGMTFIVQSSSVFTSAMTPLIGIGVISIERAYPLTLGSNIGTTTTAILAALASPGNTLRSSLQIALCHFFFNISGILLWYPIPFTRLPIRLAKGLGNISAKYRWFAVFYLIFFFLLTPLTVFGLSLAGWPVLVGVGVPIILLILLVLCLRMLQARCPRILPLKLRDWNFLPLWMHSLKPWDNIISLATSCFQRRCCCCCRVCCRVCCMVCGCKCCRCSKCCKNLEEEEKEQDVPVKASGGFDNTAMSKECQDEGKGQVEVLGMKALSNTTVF
# Assay: Sodium-dependent phosphate uptake of Xenopus oocytes which expressed NaPi-2b (32P)
# Type: cell-based
# Conditions: for IC50: Xenopus oocytes expressing rat NaPi-2b, 32P radioactive phosphorus, read-out: IC50 (phosphate uptake inhibitory activity); for inhibition at 300 µM: phosphate uptake, oocytes expressing rat NaPi-2b, determined from inhibition curve
# Procedure, shortened: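 Steps: rat NaPi-2b cDNA cloned from small intestine; cRNA made and injected into oocytes; 2-day expression; 32P phosphate uptake with compound; % inhibition at 300/100 μM taken from one curve.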
SMILES,IC50,inhibition at 300 µM
"O=C(Nc1ccc(Br)cc1C(=O)N/N=C/c1ccc(F)cc1)c1ccc(CSc2ccncc2)cc1 [Compound 256, N-[4-Bromo-2-(4-fluoro-benzylidene-hydrazinocarbonyl)-phenyl]-4-(pyridin-4-ylsulfanylmethyl)-benzamide]",< 10 µM,
"COc1ccc(/C=N/NC(=O)c2ccccc2NC(=O)c2cccc(F)c2)cc1Br [Compound 101, N-[2-(3-Bromo-4-methoxy-benzylidene-hydrazinocarbonyl)-phenyl]-3-fluoro-benzamide]",0.75 µM,
"COc1ccc(/C=N/NC(=O)c2cc(Cl)ccc2NC(=O)c2cccc(CSc3nnnn3CCN(C)C)c2)cc1 [Compound 469, N-[4-Chloro-2-(4-methoxy-benzylidene-hydrazinocarbonyl)-phenyl]-3-[1-(2-dimethylamino-ethyl)-1H-tetrazol-5-ylsulfanylmethyl]-benzamide]",33.2 µM,
"COc1ccc(NC(=O)c2ccc(OC)c(OC)c2)c(C(=O)N/N=C/c2ccc(F)cc2)c1 [Compound 142, N-[2-(4-Fluoro-benzylidene-hydrazinocarbonyl)-4-methoxy-phenyl]-3,4-dimethoxy-benzamide]",9.2 µM,
"Cc1ccc(/C=N/NC(=O)c2cc(Br)ccc2NC(=O)c2ccc(C)cc2)cc1 [Compound 494, N-[4-Bromo-2-(4-methyl-benzylidene-hydrazinocarbonyl)-phenyl]-4-methyl-benzamide]",2.07 µM,
"Cc1cccc(/C=N/NC(=O)c2cc(Cl)ccc2NC(=O)c2ccccn2)c1 [Compound 361, Pyridin-2-carboxylic acid [4-chloro-2-(3-methyl-benzylidene-hydrazinocarbonyl)-phenyl]-amide]",< 1 µM,
"COc1ccc(/C=N/NC(=O)c2cc(Br)ccc2NC(=O)c2ccc(CN3CCC(CO)CC3)cc2)cc1 [Compound 338, N-[4-Bromo-2-(4-methoxy-benzylidene-hydrazinocarbonyl)-phenyl]-4-(4-hydroxymethyl-piperidin-1-ylmethyl)-benzamide]",19 µM,
"COc1ccc(C(=O)Nc2ccc(I)cc2C(=O)N/N=C/c2ccc(C)c(C)c2)cc1OC [Compound 208, N-[2-(3,4-Dimethyl-benzylidene-hydrazinocarbonyl)-4-iodo-phenyl]-3,4-dimethoxy-benzamide]",< 0.3 µM,
"Cc1ccc(/C=N/NC(=O)c2cc(Br)ccc2NC(=O)c2ccc(CSCCCO)cc2)cc1 [Compound 274, N-[4-Bromo-2-(4-methyl-benzylidene-hydrazinocarbonyl)-phenyl]-4-(3-hydroxy-propylsulfanylmethyl)-benzamide]",1.04 µM,
"O=C(Nc1ccc(Br)cc1C(=O)N/N=C/c1cccc(F)c1)c1ccco1 [Compound 151, Furan-2-carboxylic acid [4-bromo-2-(3-fluoro-benzylidene-hydrazinocarbonyl)-phenyl]-amide]",3.07 µM,
O=C(Nc1ccccc1C(=O)N/N=C/c1ccc(F)cc1)c1cccc(OC(F)(F)F)c1 [Compound 121],4.06 µM,
"COc1cc(OC)cc(C(=O)Nc2ccc(O)cc2C(=O)N/N=C/c2cccc(F)c2)c1 [Compound 242, N-[2-(3-Fluoro-benzylidene-hydrazinocarbonyl)-4-hydroxy-phenyl]-3,5-dimethoxy-benzamide]",,37.6%
"Cc1cccc(/C=N/NC(=O)c2cc(Cl)ccc2NC(=O)c2cccc(CSc3nnnn3CCN(C)C)c2)c1 [Compound 464, N-[4-Chloro-2-(3-methyl-benzylidene-hydrazinocarbonyl)-phenyl]-3-[1-(2-dimethylamino-ethyl)-1H-tetrazol-5-ylsulfanylmethyl]-benzamide]",5 µM,
"COc1ccc(C(=O)Nc2ccc(Br)cc2C(=O)N/N=C/c2ccccc2Br)cc1OC [Compound 14, N-[4-Bromo-2-(2-bromo-benzylidene-hydrazinocarbonyl)-phenyl]-3,4-dimethoxy-benzamide]",12.1 µM,
"Cc1ccc(/C=N/NC(=O)c2cc(Br)ccc2NC(=O)c2ccc(CSCCCO)cc2)cc1C [Compound 273, N-[4-Bromo-2-(3,4-dimethyl-benzylidene-hydrazinocarbonyl)-phenyl]-4-(3-hydroxy-propylsulfanylmethyl)-benzamide]",0.15 µM,

# Results, then the compound that gave them:
IC50,inhibition at 300 µM,SMILES
2.79 µM,,O=C(Nc1ccc(N2CCC(N3CCCCC3)CC2)cc1C(=O)N/N=C/c1ccc(Cl)c(C(F)(F)F)c1)c1cccc(CSCCO)c1 [Compound 1067]
2.69 µM,,"COc1ccc(/C=N/NC(=O)c2cc(N3CCOCC3)ccc2NC(=O)c2cccc(CSCCO)c2)cc1 [Compound 1066, 3-(2-Hydroxy-ethylsulfanylmethyl)-N-[2-(4-methoxy-benzylidene-hydrazinocarbonyl)-4-morpholin-4-yl-phenyl]-benzamide]"
,81.8%,"CCSCCNCc1ccc(C(=O)Nc2ccc(Br)cc2C(=O)N/N=C/c2ccc(F)cc2)cc1 [Compound 767, N-[4-Bromo-2-(4-fluoro-benzylidene-hydrazinocarbonyl)-phenyl]-4-[(2-ethylsulfanyl-ethylamino)-methyl]-benzamide]"
3.86 µM,,"CCN(CC)CCN(C)Cc1cccc(C(=O)Nc2ccc(OCCOC)cc2C(=O)N/N=C/c2ccc(C)cc2)c1 [Compound 1026, 3-{[(2-Diethylamino-ethyl)-methyl-amino]-methyl}-N-[4-(2-methoxy-ethoxy)-2-(4-methyl-benzylidene-hydrazinocarbonyl)-phenyl]-benzamide]"
1.09 µM,,"Cc1csc(NC(=O)c2cccc(CSCCCO)c2)c1C(=O)N/N=C/c1cccc(F)c1 [Compound 560, N-[3-(3-Fluoro-benzylidene-hydrazinocarbonyl)-4-methyl-thiophen-2-yl]-3-(3-hydroxy-propylsulfanylmethyl)-benzamide]"
< 3 µM,,"O=C(Nc1sc2c(c1C(=O)N/N=C/c1ccc(F)cc1)CCCC2)c1cccc(CN2CCN(CCO)CC2)c1 [Compound 623, N-[3-(4-Fluoro-benzylidene-hydrazinocarbonyl)-4,5,6,7-tetrahydro-benzo[b]thiophen-2-yl]-3-[4-(2-hydroxy-ethyl)-piperazin-1-ylmethyl]-benzamide]"
< 3 µM,,"Cc1ccc(/C=N/NC(=O)c2cc3ccccc3cc2NC(=O)c2cccc(CN3CCN(CCO)CC3)c2)cc1 [Compound 970, 3-[4-(2-Hydroxy-ethyl)-piperazin-1-ylmethyl]-N-[3-(4-methyl-benzylidene-hydrazinocarbonyl)-naphthalen-2-yl]-benzamide]"
20.4 µM,,"COc1ccc(/C=N/NC(=O)c2cc(N3CCN(C)CC3)ccc2NC(=O)c2cccc(CSCCO)c2)cc1 [Compound 1073, 3-(2-Hydroxy-ethylsulfanylmethyl)-N-[2-(4-methoxy-benzylidene-hydrazinocarbonyl)-4-(4-methyl-piperazin-1-yl)-phenyl]-benzamide]"
3.51 µM,,"CC(O)CN(Cc1ccc(C(=O)Nc2ccc(Br)cc2C(=O)N/N=C/c2cccc(F)c2)cc1)CC(C)O (centres unmarked) [Compound 720, 4-{[Bis-(2-hydroxy-propyl)-amino]-methyl}-N-[4-bromo-2-(3-fluoro-benzylidene-hydrazinocarbonyl)-phenyl]-benzamide]"
< 3 µM,,"Cc1ccc(/C=N/NC(=O)c2c(C)csc2NC(=O)c2cccc(CN3CCC(CO)CC3)c2)cc1C [Compound 599, N-[3-(3,4-Dimethyl-benzylidene-hydrazinocarbonyl)-4-methyl-thiophen-2-yl]-3-(4-hydroxymethyl-piperidin-1-ylmethyl)-benzamide]"
16.7 µM,,"CCN(CC)CCNCc1cccc(C(=O)Nc2sc3c(c2C(=O)N/N=C/c2ccc(OC)cc2)CCC3)c1 [Compound 815, 3-[(2-Diethylamino-ethylamino)-methyl]-N-[3-(4-methoxy-benzylidene-hydrazinocarbonyl)-5,6-dihydro-4H-cyclopenta[b]thiophen-2-yl]-benzamide]"
3.52 µM,,"O=C(Nc1ccc(Br)cc1C(=O)N/N=C/c1ccc(Cl)c(C(F)(F)F)c1)c1ccc(CNCCN2CCOCC2)cc1 [Compound 714, N-[4-Bromo-2-(4-chloro-3-trifluoromethyl-benzylidene-hydrazinocarbonyl)-phenyl]-4-[(2-morpholin-4-yl-ethylamino)-methyl]-benzamide]"
9.23 µM,,"COCCOc1cc(NC(=O)c2cccc(CSCC(O)CO)c2)c(C(=O)N/N=C/c2ccc(Cl)c(C(F)(F)F)c2)cc1OCCOC (centres unmarked) [Compound 1016, N-[2-(4-Chloro-3-trifluoromethyl-benzylidene-hydrazinocarbonyl)-4,5-bis-(2-methoxy-ethoxy)-phenyl]-3-(2,3-dihydroxy-propylsulfanylmethyl)-benzamide]"
2.24 µM,,"O=C(Nc1ccc(N2CCCCC2)cc1C(=O)N/N=C/c1cccc(F)c1)c1cccc(CN2CCN(CCO)CC2)c1 [Compound 867, N-[2-(3-Fluoro-benzylidene-hydrazinocarbonyl)-4-piperidin-1-yl-phenyl]-3-[4-(2-hydroxy-ethyl)-piperazin-1-ylmethyl]-benzamide]"
